From US7803930B2, “Antisense modulation of apolipoprotein B-expression” (Isis Pharmaceuticals, Inc., priority 2002, dated 2010)
In the oligonucleotide strings, read from the 5' end, every base follows the letter of its sugar. An asterisk marks phosphorothioate; unmarked linkages are phosphodiester. Other units and linkages are bracketed, terminal groups are in braces. A string of capitals states the bases alone. e = 2'-O-(2-methoxyethyl) (MOE); [5mC] = 5-methylcytosine; d = 2'-deoxy (DNA)

System: human apolipoprotein B mRNA
Test: Inhibition of human apolipoprotein B mRNA levels in HepG2 cells, quantitative real-time PCR
Format: cell-based
Conditions: for % INHIB (inhibition of human apolipoprotein B mRNA levels): HepG2 cells treated with 150 nM of compound, quantitative real-time PCR
In short: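 HepG2 cells at 80% confluency were transfected with antisense oligonucleotide using 3.75 μg/mL Lipofectin in Opti-MEM for 4-7 h and harvested 16-24 h after treatment. Apolipoprotein B mRNA was measured by real-time RT-PCR and normalized to GAPDH or RiboGreen total RNA. Percent inhibition came from untreated-control standard curves.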

[1] = HepG2 cells, human apolipoprotein B mRNA, oligonucleotides targeting genomic sequence SEQ ID NO 334, averages from two experiments
[2] = Table 11 gene walk, HepG2 cells, 50 nM, averages from two experiments
[3] = Table 11 gene walk, HepG2 cells, 150 nM, averages from two experiments
[4] = HepG2 cells, 50 nM, 24 hour (Table 40)
[5] = HepG2 cells, 150 nM, 24 hour (Table 40)

Substance | % INHIB [1] [%] | % INHIB (inhibition of human apolipoprotein B mRNA levels) (averages from two experiments) [%] | other results
332785 (antisense GCTTCGCACC; linkages s4 o1 s4 (s phosphorothioate, o phosphodiester), sugars by position and methylation of C not given here; 2'-MOE wings flank a DNA gap) [compound 332785] |  |  | % Change in apolipoprotein B mRNA expression (HepG2 cells, 10 nM, 24 hour (Table 41)): +5%; % Change in apolipoprotein B mRNA expression (HepG2 cells, 50 nM, 24 hour (Table 41)): −2%; % Change in apolipoprotein B mRNA expression (HepG2 cells, 150 nM, 24 hour (Table 41)): −4%
308661 (antisense AGTCTGCTTCGCGCCTTCTG; 2-10-8 2'-MOE gapmer, phosphorothioate, chemistry not fully specified) [compound 308661] |  |  | % INHIB 50 nm (Table 17 variable gap, HepG2 cells, 50 nM, averages from three experiments): 70%; % INHIB 150 nm (Table 17 variable gap, HepG2 cells, 150 nM, averages from three experiments): 91%
301062 (e[5mC]*e[5mC]*eT*e[5mC]*eA*dG*d[5mC]*dG*dG*dA*d[5mC]*dA*d[5mC]*dA*d[5mC]*eA*e[5mC]*eA*e[5mC]*eA; antisense) [compound 301062] | 21 |  | 
281628 (antisense e[5mC]*eT*eA*eG*eA*d[5mC]*dA*d[5mC]*dG*dA*dG*dA*dT*dG*dA*eT*eG*eA*e[5mC]*eT) [compound 281628] |  | 81 | 
270992 (antisense e[5mC]*e[5mC]*e[5mC]*eT*eT*d[5mC]*d[5mC]*dT*d[5mC]*dG*dT*d[5mC]*dT*dT*dG*eA*e[5mC]*eG*eG*eT) [compound 270992] |  | 8 | 
281622 (antisense eA*eG*e[5mC]*eA*e[5mC]*d[5mC]*dA*dG*dG*dA*dG*dA*d[5mC]*dT*dA*e[5mC]*eA*e[5mC]*eT*eT) [compound 281622] |  | 88 | 
301065 (eA*eG*e[5mC]*eT*eG*d[5mC]*dA*dG*dT*dG*dG*d[5mC]*d[5mC]*dG*dA*eT*e[5mC]*eA*eG*e[5mC]; antisense) [compound 301065] | 50 |  | 
308597 (antisense eT*e[5mC]*eA*eG*eT*d[5mC]*dT*dG*d[5mC]*dT*dT*d[5mC]*dG*d[5mC]*dA*e[5mC]*e[5mC]*eT*eT*e[5mC]) [compound 308597] |  |  | % INHIB 50 nm [2]: 66%; % INHIB 150 nm [3]: 91%
308598 (antisense e[5mC]*e[5mC]*eT*e[5mC]*eA*dG*dT*d[5mC]*dT*dG*d[5mC]*dT*dT*d[5mC]*dG*e[5mC]*eA*e[5mC]*e[5mC]*eT) [compound 308598] |  |  | % INHIB 50 nm [2]: 59%; % INHIB 150 nm [3]: 85%
301173 (antisense e[5mC]*eA*eT*e[5mC]*eT*d[5mC]*dT*dA*dA*d[5mC]*d[5mC]*dT*dG*dG*dT*eG*eT*e[5mC]*e[5mC]*e[5mC]) [compound 301173] | 21 |  | 
301105 (antisense eG*eG*e[5mC]*e[5mC]*eA*dT*dG*dT*dA*dA*dA*dT*dT*dG*d[5mC]*eT*e[5mC]*eA*eT*e[5mC]) [compound 301105] | 7 |  | 
332769 (antisense GCCTCAGTCTGCTTCGCACC; all 2'-MOE, all phosphorothioate, methylation of C not given here) [compound 332769] |  |  | % Change in apolipoprotein B mRNA expression [4]: −11%; % Change in apolipoprotein B mRNA expression [5]: −14%
308595 (antisense eT*e[5mC]*eT*eG*e[5mC]*dT*dT*d[5mC]*dG*d[5mC]*dA*d[5mC]*d[5mC]*dT*dT*e[5mC]*eT*eG*e[5mC]*eT) [compound 308595] |  |  | % INHIB 50 nm [2]: 60%; % INHIB 150 nm [3]: 82%
301110 (antisense e[5mC]*eT*eG*eG*eA*dG*dA*dG*d[5mC]*dA*d[5mC]*d[5mC]*dT*dG*d[5mC]*eA*eA*eT*eA*eG) [compound 301110] | 35 |  | 
301070 (eG*eT*eT*eG*eG*dA*d[5mC]*dA*dG*dT*d[5mC]*dA*dT*dT*d[5mC]*eT*eT*eT*eT*eG; antisense) [compound 301070] | 38 |  | 
281636 (antisense eG*e[5mC]*eA*eA*eG*dA*dG*dT*d[5mC]*d[5mC]*dA*d[5mC]*d[5mC]*dA*dA*eT*e[5mC]*eA*eG*eA) [compound 281636] |  | 68 | 

Substance | % INHIB [1] [%] | % INHIB (inhibition of human apolipoprotein B mRNA levels) (averages from two experiments) [%] | other results
301075 (eT*eT*e[5mC]*eA*eA*dG*dG*dG*d[5mC]*d[5mC]*dA*d[5mC]*dT*dG*d[5mC]*eT*eA*eT*e[5mC]*eA; antisense) [compound 301075] | 52 |  | 
332771 (antisense GCCTCAGTCTTATTCGCACC; sugars from the 5' end e5 d10 e5, all phosphorothioate, methylation of C not given here) [compound 332771] |  |  | % Change in apolipoprotein B mRNA expression [4]: +37%; % Change in apolipoprotein B mRNA expression [5]: +37%
301160 (eA*e[5mC]*e[5mC]*eT*eT*dG*dT*dG*dT*dG*dT*d[5mC]*dT*d[5mC]*dA*e[5mC]*eT*e[5mC]*eA*eA; antisense) [compound 301160] | 49 |  | 
281637 (antisense eA*eG*eA*eG*e[5mC]*d[5mC]*dT*dG*dA*dA*dG*dA*d[5mC]*dT*dG*eA*e[5mC]*eT*eT*e[5mC]) [compound 281637] |  | 74 | 
301203 (antisense eG*eT*eT*e[5mC]*e[5mC]*d[5mC]*dA*dA*dA*dA*d[5mC]*dT*dG*dT*dA*eT*eA*eG*eG*eA) [compound 301203] | 36 |  | 
301131 (e[5mC]*eT*eT*eT*eT*dT*d[5mC]*dA*dG*dA*d[5mC]*dT*dA*dG*dA*eT*eA*eA*eG*eA; antisense) [compound 301131] | 0 |  | 
281595 (eG*eA*eT*eG*eT*dG*dG*dA*dT*dT*dT*dG*dG*dT*dG*e[5mC]*eT*e[5mC]*eT*e[5mC]; antisense) [compound 281595] |  | 76 | 
270999 (antisense eG*eT*eT*eG*eA*d[5mC]*d[5mC]*dG*d[5mC]*dG*dT*dG*dG*d[5mC]*dT*e[5mC]*eA*eG*e[5mC]*eG) [compound 270999] |  | 76 | 
301046 (eA*eG*eT*eT*eT*dA*dG*d[5mC]*dA*dA*dA*dA*dT*dA*dA*e[5mC]*eT*e[5mC]*eA*eG; antisense) [compound 301046] |  | 80 | 
281588 (eT*e[5mC]*eT*eT*e[5mC]*dA*dG*dG*dA*dT*dG*dA*dA*dG*d[5mC]*eT*eG*e[5mC]*eA*eG; antisense) [compound 281588] |  | 80 | 
271035 (eT*e[5mC]*eG*eT*eA*d[5mC]*dT*dG*dT*dG*d[5mC]*dT*d[5mC]*d[5mC]*d[5mC]*eA*eG*eA*eG*eG; antisense) [compound 271035] |  | 23 | 
301178 (antisense eA*eG*eG*eA*eT*dT*d[5mC]*d[5mC]*d[5mC]*dA*dA*dG*dA*d[5mC]*dT*eT*eT*eG*eG*eA) [compound 301178] | 38 |  | 
308619 (eG*eT*eA*eG*eG*d[5mC]*dT*d[5mC]*d[5mC]*dT*dT*dT*dT*dA*dG*eG*eT*eT*eA*e[5mC]; antisense) [compound 308619] |  |  | % INHIB 50 nm [2]: 69%; % INHIB 150 nm [3]: 74%
147816 (antisense eT*e[5mC]*eA*eT*eA*d[5mC]*dG*dT*dT*dT*dA*dG*d[5mC]*d[5mC]*d[5mC]*eA*eA*eT*e[5mC]*eT) [compound 147816] |  |  | % INHIB (Table 1, HepG2 cells, 150 nM, averages from two experiments): 100%; Percent Inhibition 50 nM (Table 2, HepG2 cells, 50 nM): 25%; Percent Inhibition 150 nM (Table 2, HepG2 cells, 150 nM): 81%; Percent Inhibition 250 nM (Table 2, HepG2 cells, 250 nM): 65%
301168 (antisense e[5mC]*eA*e[5mC]*eT*e[5mC]*dA*dT*dG*dA*d[5mC]*d[5mC]*dA*dG*dA*d[5mC]*eT*eA*eA*eG*eA) [compound 301168] | 35 |  | 
